Test results as given in patent US20260193264A1, “BENZOYPARAZINE PYRAZINES AND THEIR USES” (FOGHORN THERAPEUTICS INC., priority 2022, published 2026).

What was measured:
[1] = biological target: T1, HiBiT-BRM fusion protein in stable HeLa cell line (Homo sapiens, UniProt P51531); experiment: HiBiT-BRM cell-based degradation assay (Nano-Glo HiBiT Lytic Detection, 24 h); parameters: DC50: scale not given here; settings: HeLa HiBiT-BRM cells; for DC50: read-out: BRM HiBit Degradation IC50; for BRM HiBit Degradation Maximum (%): top dose 30 μM
T1 construct: expressed in transfected cells
Procedure, shortened: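 Luminescence from HiBiT/LgBiT complementation after lysis reports remaining HiBiT-BRM in stable HeLa cells exposed to compound for 24 h. Dosing used 3-fold serial dilutions, 10 points, 30 μM top final concentration. DMSO and a 2 μM BRM/BRG1 degrader standard defined 0% and 100% degradation.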

[2] = biological target: T2, HiBit-BRG1 fusion protein in stable HeLa cell line expressing HiBit-BRG1 and LgBit (Homo sapiens, UniProt P51532); experiment: HiBiT-BRG1 cell-based degradation assay (Nano-Glo HiBiT, 24 h); settings: HeLa HiBit-BRG1/LgBit cells; for DC50: read-out: BRMG1 HiBit Degradation IC50; for Dmax: top dose 30 μM, read-out: BRG1 HiBit Degradation Maximum (%)
T2 construct: expressed in transfected cells
Procedure, shortened: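 Stable HeLa line co-expressing HiBiT-BRG1 and LgBiT, compound-treated 24 h; luminescence read after Nano-Glo HiBiT lytic reagent. % degradation normalised between DMSO (high control) and 2 μM reference BRM/BRG1 degrader (low control).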

T2 sequence (P51532 whole entry, the tested form may be a part): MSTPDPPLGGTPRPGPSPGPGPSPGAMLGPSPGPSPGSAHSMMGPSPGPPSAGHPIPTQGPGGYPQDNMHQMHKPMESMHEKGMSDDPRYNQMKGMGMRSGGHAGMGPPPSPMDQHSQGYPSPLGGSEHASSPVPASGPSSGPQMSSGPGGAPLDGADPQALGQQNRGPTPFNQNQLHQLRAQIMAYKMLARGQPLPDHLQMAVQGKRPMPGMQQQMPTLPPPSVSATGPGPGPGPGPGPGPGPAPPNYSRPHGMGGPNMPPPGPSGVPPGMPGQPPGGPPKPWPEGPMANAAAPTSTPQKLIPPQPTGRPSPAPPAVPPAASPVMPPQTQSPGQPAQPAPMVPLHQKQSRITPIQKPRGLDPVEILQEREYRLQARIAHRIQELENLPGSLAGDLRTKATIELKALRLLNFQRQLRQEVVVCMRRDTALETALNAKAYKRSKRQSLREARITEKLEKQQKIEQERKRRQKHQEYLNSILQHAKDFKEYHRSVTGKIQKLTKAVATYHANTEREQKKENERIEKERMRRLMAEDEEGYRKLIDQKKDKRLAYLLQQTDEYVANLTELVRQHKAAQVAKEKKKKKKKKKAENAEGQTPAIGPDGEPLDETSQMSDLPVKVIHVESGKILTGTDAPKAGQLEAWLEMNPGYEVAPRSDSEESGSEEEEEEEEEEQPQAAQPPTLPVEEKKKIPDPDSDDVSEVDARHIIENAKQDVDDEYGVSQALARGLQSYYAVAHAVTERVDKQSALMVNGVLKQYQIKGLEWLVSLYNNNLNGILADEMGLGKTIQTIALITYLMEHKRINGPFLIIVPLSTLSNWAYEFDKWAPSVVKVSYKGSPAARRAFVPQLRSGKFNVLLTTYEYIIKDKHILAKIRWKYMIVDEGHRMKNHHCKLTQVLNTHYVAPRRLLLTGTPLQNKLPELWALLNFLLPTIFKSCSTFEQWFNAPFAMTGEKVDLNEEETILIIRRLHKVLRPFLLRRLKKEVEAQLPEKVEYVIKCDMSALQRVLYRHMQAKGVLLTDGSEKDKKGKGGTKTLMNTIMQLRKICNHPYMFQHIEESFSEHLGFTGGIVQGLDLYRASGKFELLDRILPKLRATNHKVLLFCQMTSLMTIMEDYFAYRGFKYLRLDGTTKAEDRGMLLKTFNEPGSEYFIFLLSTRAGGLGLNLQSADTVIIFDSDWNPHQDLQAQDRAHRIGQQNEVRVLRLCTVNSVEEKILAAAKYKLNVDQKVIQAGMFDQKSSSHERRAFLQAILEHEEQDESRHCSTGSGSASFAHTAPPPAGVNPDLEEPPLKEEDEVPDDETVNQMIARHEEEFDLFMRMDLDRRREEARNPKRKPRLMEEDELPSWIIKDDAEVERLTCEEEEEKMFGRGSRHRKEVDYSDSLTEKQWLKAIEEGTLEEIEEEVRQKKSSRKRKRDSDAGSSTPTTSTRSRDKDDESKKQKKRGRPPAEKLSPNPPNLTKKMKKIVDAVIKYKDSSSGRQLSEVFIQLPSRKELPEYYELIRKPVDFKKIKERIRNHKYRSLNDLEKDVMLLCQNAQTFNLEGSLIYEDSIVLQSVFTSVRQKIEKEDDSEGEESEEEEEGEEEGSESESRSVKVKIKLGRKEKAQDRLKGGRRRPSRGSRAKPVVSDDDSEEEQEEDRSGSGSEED
T1 sequence (P51531 whole entry, the tested form may be a part): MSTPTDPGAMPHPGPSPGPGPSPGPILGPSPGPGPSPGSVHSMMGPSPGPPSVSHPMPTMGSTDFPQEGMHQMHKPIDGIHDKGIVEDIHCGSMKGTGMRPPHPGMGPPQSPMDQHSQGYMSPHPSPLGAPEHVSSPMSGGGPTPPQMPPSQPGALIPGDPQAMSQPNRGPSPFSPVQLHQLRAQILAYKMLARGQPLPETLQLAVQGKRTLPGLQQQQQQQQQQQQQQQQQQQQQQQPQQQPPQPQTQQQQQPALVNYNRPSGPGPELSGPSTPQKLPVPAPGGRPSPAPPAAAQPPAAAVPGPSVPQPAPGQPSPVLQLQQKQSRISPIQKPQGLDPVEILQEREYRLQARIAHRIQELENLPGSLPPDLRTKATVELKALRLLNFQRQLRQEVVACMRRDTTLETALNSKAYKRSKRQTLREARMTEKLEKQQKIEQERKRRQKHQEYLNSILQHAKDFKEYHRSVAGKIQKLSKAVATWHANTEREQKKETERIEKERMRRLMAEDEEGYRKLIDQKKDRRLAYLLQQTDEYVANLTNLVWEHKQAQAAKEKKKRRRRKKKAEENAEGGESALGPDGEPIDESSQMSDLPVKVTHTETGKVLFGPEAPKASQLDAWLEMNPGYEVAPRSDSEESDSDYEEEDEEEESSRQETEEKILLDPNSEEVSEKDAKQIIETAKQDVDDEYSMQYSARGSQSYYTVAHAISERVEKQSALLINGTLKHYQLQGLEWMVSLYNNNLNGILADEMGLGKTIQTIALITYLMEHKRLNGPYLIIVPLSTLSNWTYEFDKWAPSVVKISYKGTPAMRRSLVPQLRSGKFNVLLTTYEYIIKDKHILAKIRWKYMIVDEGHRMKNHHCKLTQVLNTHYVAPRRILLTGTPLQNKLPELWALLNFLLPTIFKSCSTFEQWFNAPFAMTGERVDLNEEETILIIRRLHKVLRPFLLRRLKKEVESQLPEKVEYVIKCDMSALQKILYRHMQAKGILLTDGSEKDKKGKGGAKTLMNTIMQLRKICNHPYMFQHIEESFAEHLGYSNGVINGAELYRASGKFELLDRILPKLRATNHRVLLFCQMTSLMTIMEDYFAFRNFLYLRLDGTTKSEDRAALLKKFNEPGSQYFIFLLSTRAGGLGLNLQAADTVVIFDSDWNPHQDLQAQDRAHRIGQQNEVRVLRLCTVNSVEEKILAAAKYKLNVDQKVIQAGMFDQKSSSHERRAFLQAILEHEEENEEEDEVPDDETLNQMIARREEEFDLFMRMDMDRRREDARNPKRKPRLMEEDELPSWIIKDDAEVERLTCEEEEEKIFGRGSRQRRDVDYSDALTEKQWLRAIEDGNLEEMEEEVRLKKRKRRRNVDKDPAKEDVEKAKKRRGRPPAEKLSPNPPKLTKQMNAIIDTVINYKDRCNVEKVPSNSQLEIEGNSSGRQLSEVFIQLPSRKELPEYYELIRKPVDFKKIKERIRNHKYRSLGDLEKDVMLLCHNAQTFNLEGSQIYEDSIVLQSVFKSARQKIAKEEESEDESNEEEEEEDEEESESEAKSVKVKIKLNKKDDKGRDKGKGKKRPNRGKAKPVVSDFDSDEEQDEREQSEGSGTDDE

Row | Structure (SMILES) | DC50 [1] [nM] | BRM HiBit Degradation Maximum (%) [1] | DC50 [2] [nM] | Dmax [2] [%]
1 | Cc1ncsc1-c1ccc([C@H](C)NC(=O)[C@@H]2C[C@@H](O)CN2C(=O)[C@@H](c2cc(N3CCC4(CC[C@H](c5ccc6nnc(-c7ccccc7O)cc6c5)C4)CC3)no2)C(C)C)cc1 [Compound 75, (2S,4R)-4-hydroxy-1-((R)-2-(3-((S)-2-(3-(2-hydroxyphenyl)cinnolin-6-yl)-8-azaspiro[4.5]decan-8-yl)isoxazol-5-yl)-3-methylbutanoyl)-N-((S)-1-(4-(4-methylthiazol-5-yl)phenyl)ethyl)pyrrolidine-2-carboxamide] | < 10 | A (“A” indicates maximum degradation ≥75%) | > 10 | > 75
2 | Cc1ncsc1-c1ccc([C@H](C)NC(=O)[C@@H]2C[C@@H](O)CN2C(=O)[C@@H](c2cc(N3CCC4(CC[C@@H](c5ccc6nnc(-c7ccccc7O)cc6c5)C4)CC3)no2)C(C)C)cc1 [Compound 76, (2S,4R)-4-hydroxy-1-((R)-2-(3-((R)-2-(3-(2-hydroxyphenyl)cinnolin-6-yl)-8-azaspiro[4.5]decan-8-yl)isoxazol-5-yl)-3-methylbutanoyl)-N-((S)-1-(4-(4-methylthiazol-5-yl)phenyl)ethyl)pyrrolidine-2-carboxamide] | < 10 | A (“A” indicates maximum degradation ≥75%) | > 10 | > 75
3 | Cc1ncsc1-c1ccc([C@H](C)NC(=O)[C@@H]2C[C@@H](O)CN2C(=O)[C@@H](c2cc(-c3cnc(N4CC(c5cc(C6CC6)c6cc(-c7ccccc7O)nnc6c5)C4)nc3)no2)C(C)C)cc1 [Compound 77, (2S,4R)-1-((R)-2-(3-(2-(3-(5-cyclopropyl-3-(2-hydroxyphenyl)cinnolin-7-yl)azetidin-1-yl)pyrimidin-5-yl)isoxazol-5-yl)-3-methylbutanoyl)-4-hydroxy-N-((S)-1-(4-(4-methylthiazol-5-yl)phenyl)ethyl)pyrrolidine-2-carboxamide] | < 10 | A (“A” indicates maximum degradation ≥75%) | – | < 50
4 | Cc1ncsc1-c1ccc([C@H](C)NC(=O)[C@@H]2C[C@@H](O)CN2C(=O)[C@@H](c2cc(N3CCC4(CC3)CC(Oc3ccc5cc(-c6ccccc6O)nnc5c3)C4)no2)C(C)C)cc1 [Compound 78, (2S,4R)-4-hydroxy-1-((R)-2-(3-(2-((3-(2-hydroxyphenyl)cinnolin-7-yl)oxy)-7-azaspiro[3.5]nonan-7-yl)isoxazol-5-yl)-3-methylbutanoyl)-N-((S)-1-(4-(4-methylthiazol-5-yl)phenyl)ethyl)pyrrolidine-2-carboxamide] | > 10 | A (“A” indicates maximum degradation ≥75%) | – | < 50
5 | Cc1ncsc1-c1ccc([C@H](C)NC(=O)[C@@H]2C[C@@H](O)CN2C(=O)[C@@H](c2cc(-c3cnc(N4CC(c5cc6cc(-c7ccccc7O)nnc6cc5C5CC5)C4)nc3)no2)C(C)C)cc1 [Compound 79, (2S,4R)-1-((R)-2-(3-(2-(3-(7-cyclopropyl-3-(2-hydroxyphenyl)cinnolin-6-yl)azetidin-1-yl)pyrimidin-5-yl)isoxazol-5-yl)-3-methylbutanoyl)-4-hydroxy-N-((S)-1-(4-(4-methylthiazol-5-yl)phenyl)ethyl)pyrrolidine-2-carboxamide] | < 10 | A (“A” indicates maximum degradation ≥75%) | < 10 | > 75
6 | Cc1nc(N2CCC(c3ccc4cc(-c5ccccc5O)nnc4c3)CC2)ccc1-c1cc([C@H](C(=O)N2C[C@H](O)C[C@H]2C(=O)N[C@@H](C)c2ccc(-c3scnc3C)cc2)C(C)C)on1 [Compound 80, (2S,4R)-4-hydroxy-1-((R)-2-(3-(6-(4-(3-(2-hydroxyphenyl)cinnolin-7-yl)piperidin-1-yl)-2-methylpyridin-3-yl)isoxazol-5-yl)-3-methylbutanoyl)-N-((S)-1-(4-(4-methylthiazol-5-yl)phenyl)ethyl)pyrrolidine-2-carboxamide] | < 10 | A (“A” indicates maximum degradation ≥75%) | > 10 | > 75
7 | Cc1cc(N2CCC(c3ccc4cc(-c5ccccc5O)nnc4c3)CC2)ncc1-c1cc([C@H](C(=O)N2C[C@H](O)C[C@H]2C(=O)N[C@@H](C)c2ccc(-c3scnc3C)cc2)C(C)C)on1 [Compound 81, (2S,4R)-4-hydroxy-1-((R)-2-(3-(6-(4-(3-(2-hydroxyphenyl)cinnolin-7-yl)piperidin-1-yl)-4-methylpyridin-3-yl)isoxazol-5-yl)-3-methylbutanoyl)-N-((S)-1-(4-(4-methylthiazol-5-yl)phenyl)ethyl)pyrrolidine-2-carboxamide] | < 10 | A (“A” indicates maximum degradation ≥75%) | – | < 50
8 | Cc1ncsc1-c1ccc([C@H](C)NC(=O)[C@@H]2C[C@@H](O)CN2C(=O)[C@@H](c2cc(N3CCC4(CC3)CC(c3ccc5cc(-c6cc(F)cc(F)c6O)nnc5c3)C4)no2)C(C)C)cc1 [Compound 82, (2S,4R)-1-((R)-2-(3-(2-(3-(3,5-difluoro-2-hydroxyphenyl)cinnolin-7-yl)-7-azaspiro[3.5]nonan-7-yl)isoxazol-5-yl)-3-methylbutanoyl)-4-hydroxy-N-((S)-1-(4-(4-methylthiazol-5-yl)phenyl)ethyl)pyrrolidine-2-carboxamide] | < 10 | A (“A” indicates maximum degradation ≥75%) | – | < 50
9 | Cc1ncsc1-c1ccc([C@H](C)NC(=O)[C@@H]2C[C@@H](O)CN2C(=O)[C@@H](c2cc(N3CCC4(CCN(c5ccc6cc(-c7ccccc7O)nnc6c5)C4)CC3)no2)C(C)C)cc1 [Compound 83, (2S,4R)-4-hydroxy-1-((R)-2-(3-(2-(3-(2-hydroxyphenyl)cinnolin-7-yl)-2,8-diazaspiro [4.5]decan-8-yl)isoxazol-5-yl)-3-methylbutanoyl)-N-((S)-1-(4-(4-methylthiazol-5-yl)phenyl)ethyl)pyrrolidine-2-carboxamide] | < 10 | A (“A” indicates maximum degradation ≥75%) | > 10 | > 75
10 | Cc1ncsc1-c1ccc([C@H](C)NC(=O)[C@@H]2C[C@@H](O)CN2C(=O)[C@@H](c2cc(N3CC4(CC(Oc5ccc6cc(-c7ccccc7O)nnc6c5)C4)C3)no2)C(C)C)cc1 [Compound 84, (2S,4R)-4-hydroxy-1-((R)-2-(3-(6-((3-(2-hydroxyphenyl)cinnolin-7-yl)oxy)-2-azaspiro[3.3]heptan-2-yl)isoxazol-5-yl)-3-methylbutanoyl)-N-((S)-1-(4-(4-methylthiazol-5-yl)phenyl)ethyl)pyrrolidine-2-carboxamide] | < 10 | A (“A” indicates maximum degradation ≥75%) | > 10 | > 50
11 | CC(C)[C@@H](C(=O)N1C[C@H](O)C[C@H]1C(=O)N[C@@H](C)c1ccccc1)c1cc(N2CC3(CN(c4ccc5cc(-c6ccccc6O)nnc5c4)C3)C2)no1 [Compound 85, (2S,4R)-4-hydroxy-1-((R)-2-(3-(6-(3-(2-hydroxyphenyl)cinnolin-7-yl)-2,6-diazaspiro[3.3]heptan-2-yl)isoxazol-5-yl)-3-methylbutanoyl)-N-((S)-1-phenylethyl)pyrrolidine-2-carboxamide] | < 10 | A (“A” indicates maximum degradation ≥75%) | – | < 50
12 | Cc1ncsc1-c1ccc([C@H](C)NC(=O)[C@@H]2C[C@@H](O)CN2C(=O)[C@@H](c2cc(N3C[C@@H]4[C@H](C3)[C@H]4c3ccc4nnc(-c5ccccc5O)cc4c3)no2)C(C)C)cc1 [Compound 86, (2S,4R)-4-hydroxy-1-((R)-2-(3-((1R,5S,6S)-6-(3-(2-hydroxyphenyl)cinnolin-6-yl)-3-azabicyclo[3.1.0]hexan-3-yl)isoxazol-5-yl)-3-methylbutanoyl)-N-((S)-1-(4-(4-methylthiazol-5-yl)phenyl)ethyl)pyrrolidine-2-carboxamide] | < 10 | A (“A” indicates maximum degradation ≥75%) | – | < 50
13 | Cc1ncsc1-c1ccc([C@H](C)NC(=O)[C@@H]2C[C@@H](O)CN2C(=O)[C@@H](c2cc(N3CC4(CCC(c5ccc6cc(-c7ccccc7O)nnc6c5)CC4)C3)no2)C(C)C)cc1 [Compound 87, (2S,4R)-4-hydroxy-1-((R)-2-(3-(7-(3-(2-hydroxyphenyl)cinnolin-7-yl)-2-azaspiro[3.5]nonan-2-yl)isoxazol-5-yl)-3-methylbutanoyl)-N-((S)-1-(4-(4-methylthiazol-5-yl)phenyl)ethyl)pyrrolidine-2-carboxamide] | < 10 | A (“A” indicates maximum degradation ≥75%) | < 10 | > 75
14 | Cc1cc(-c2cc([C@H](C(=O)N3C[C@H](O)C[C@H]3C(=O)N[C@@H](C)c3ccc(-c4scnc4C)cc3)C(C)C)on2)cnc1N1CCC(c2ccc3cc(-c4ccccc4O)nnc3c2)CC1 [Compound 88, (2S,4R)-4-hydroxy-1-((R)-2-(3-(6-(4-(3-(2-hydroxyphenyl)cinnolin-7-yl)piperidin-1-yl)-5-methylpyridin-3-yl)isoxazol-5-yl)-3-methylbutanoyl)-N-((S)-1-(4-(4-methylthiazol-5-yl)phenyl)ethyl)pyrrolidine-2-carboxamide] | < 10 | A (“A” indicates maximum degradation ≥75%) | – | < 50
